In patent publication US20120115877A1, “Facially Amphiphilic Compounds, Compositions, And Uses Thereof In Treating Cancer” (POLYMEDIX, INC., priority 2010, published 2012):

Experiments:
Format in all cases: cell-based, human
Details in all cases: 10 μM
NCI-H322M = assay: NCI-60 screen, Non-Small Cell Lung Cancer
Description: (§1) Several compounds were tested at single concentrations (10 μM) against 59 different human tumor cell lines, representing leukemia, melanoma and cancers of the lung, colon, brain, ovary, breast, prostate, and kidney (see, Table 3). The human tumor cell lines of the cancer screening panel were grown in RPMI 1640 medium containing 5% fetal bovine serum and 2 mM L-glutamine. For a typical screening experiment, cells were inoculated into 96 well microtiter plates in 100 μL at plating densities ranging from 5,000 to 40,000 cells/well depending on the doubling time of individual cell lines. After cell inoculation, the microtiter plates were incubated at 37° C., 5% CO2, 95% air and 100% relative humidity for 24 hours prior to addition of the compounds.
(§2) After 24 hours, two plates of each cell line were fixed in situ with TCA, to represent a measurement of the cell population for each cell line at the time of drug addition (Tz). Compounds were solubilized in dimethyl sulfoxide at 400-fold the desired final maximum test concentration and stored frozen prior to use. At the time of drug addition, an aliquot of frozen concentrate was thawed and diluted to twice the desired final maximum test concentration with complete medium containing 50 μg/ml gentamicin. Additional four, 10-fold or ½ log serial dilutions were made to provide a total of five compound concentrations plus control. Aliquots of 100 μl of these different drug dilutions were added to the appropriate microtiter wells already containing 100 μl of medium, resulting in the required final compound concentrations.
(§3) Following drug addition, the plates were incubated for an additional 48 hours at 37° C., 5% CO2, 95% air, and 100% relative humidity. For adherent cells, the assay was terminated by the addition of cold TCA. Cells were fixed in situ by the gentle addition of 50 μl of cold 50% (w/v) TCA (final concentration, 10% TCA) and incubated for 60 minutes at 4° C. The supernatant was discarded, and the plates were washed five times with tap water and air dried. Sulforhodamine B (SRB) solution (100 μl) at 0.4% (w/v) in 1% acetic acid was added to each well, and plates were incubated for 10 minutes at room temperature. After staining, unbound dye was removed by washing five times with 1% acetic acid and the plates were air dried. Bound stain was subsequently solubilized with 10 mM trizma base, and the absorbance was read on an automated plate reader at a wavelength of 515 nm. For suspension cells, the methodology was the same except that the assay was terminated by fixing settled cells at the bottom of the wells by gently adding 50 μl of 80% TCA (final concentration, 16% TCA). Using the seven absorbance measurements (time zero, (Tz), control growth, (C), and test growth in the presence of drug at the five concentration levels (Ti)), the percentage growth was calculated at each of the compound concentrations levels. Percentage growth inhibition was calculated as:
(§4) [(Ti−Tz)/(C−Tz)]×100 for concentrations for which Ti>/=Tz
(§5) [(Ti−Tz)/Tz]×100 for concentrations for which Ti<Tz.
(§6) Three dose response parameters were calculated for each compound. Growth inhibition of 50% (GI50) was calculated from [(Ti−Tz)/(C−Tz)]×100=50, which is the compound concentration resulting in a 50% reduction in the net protein increase (as measured by SRB staining) in control cells during the compound incubation. The compound concentration resulting in total growth inhibition (TGI) was calculated from Ti=Tz. The LC50 (concentration of compound resulting in a 50% reduction in the measured protein at the end of the compound treatment as compared to that at the beginning) indicating a net loss of cells following treatment was calculated from [(Ti−Tz)/Tz]×100=−50. Values were calculated for each of these three parameters if the level of activity was reached; however, if the effect was not reached or was exceeded, the value for that parameter was expressed as greater or less than the maximum or minimum concentration tested.

NCI-H522 = assay: NCI-60 screen, Non-Small Cell Lung Cancer
Description: as §1, §2, §3, §4, §5, §6

EKVX = assay: NCI-60 screen, Non-Small Cell Lung Cancer
Description: as §1, §2, §3, §4, §5, §6

NCI-H226 = assay: NCI-60 screen, Non-Small Cell Lung Cancer
Description: as §1, §2, §3, §4, §5, §6

HOP-62 = assay: NCI-60 screen, Non-Small Cell Lung Cancer
Description: as §1, §2, §3, §4, §5, §6

NCI-H460 = assay: NCI-60 screen, Non-Small Cell Lung Cancer
Description: as §1, §2, §3, §4, §5, §6

NCI-H23 = assay: NCI-60 screen, Non-Small Cell Lung Cancer
Description: as §1, §2, §3, §4, §5, §6

A549/ATCC = assay: NCI-60 screen, Non-Small Cell Lung Cancer
Description: as §1, §2, §3, §4, §5, §6

HOP-92 = assay: NCI-60 screen, Non-Small Cell Lung Cancer
Description: as §1, §2, §3, §4, §5, §6

HCT-116 = assay: NCI-60 screen, Colon Cancer
Description: as §1, §2, §3, §4, §5, §6

HCT-15 = assay: NCI-60 screen, Colon Cancer
Description: as §1, §2, §3, §4, §5, §6

SW-620 = assay: NCI-60 screen, Colon Cancer
Description: as §1, §2, §3, §4, §5, §6

HCC-2998 = assay: NCI-60 screen, Colon Cancer
Description: as §1, §2, §3, §4, §5, §6

HT29 = assay: NCI-60 screen, Colon Cancer
Description: as §1, §2, §3, §4, §5, §6

KM12 = assay: NCI-60 screen, Colon Cancer
Description: as §1, §2, §3, §4, §5, §6

COLO 205 = assay: NCI-60 screen, Colon Cancer
Description: as §1, §2, §3, §4, §5, §6

NCI/ADR-RES = assay: NCI-60 screen, Ovarian Cancer
Description: as §1, §2, §3, §4, §5, §6

OVCAR-5 = assay: NCI-60 screen, Ovarian Cancer
Description: as §1, §2, §3, §4, §5, §6

OVCAR-3 = assay: NCI-60 screen, Ovarian Cancer
Description: as §1, §2, §3, §4, §5, §6

SK-OV-3 = assay: NCI-60 screen, Ovarian Cancer
Description: as §1, §2, §3, §4, §5, §6

IGROV1 = assay: NCI-60 screen, Ovarian Cancer
Description: as §1, §2, §3, §4, §5, §6

OVCAR-8 = assay: NCI-60 screen, Ovarian Cancer
Description: as §1, §2, §3, §4, §5, §6

OVCAR-4 = assay: NCI-60 screen, Ovarian Cancer
Description: as §1, §2, §3, §4, §5, §6

HL-60(TB) = assay: NCI-60 screen, Leukemia
Description: as §1, §2, §3, §4, §5, §6

K-562 = assay: NCI-60 screen, Leukemia
Description: as §1, §2, §3, §4, §5, §6

SR = assay: NCI-60 screen, Leukemia
Description: as §1, §2, §3, §4, §5, §6

MOLT-4 = assay: NCI-60 screen, Leukemia
Description: as §1, §2, §3, §4, §5, §6

**Q.** For NCCSc1cc(SCCN)c(C(F)(F)F)cc1NC(=O)c1cc(C(=O)Nc2cc(C(F)(F)F)c(SCCN)cc2SCCN)ncn1 [Compound F], which “Percent Growth” value (NCI-H322M) is on record?
**A.** The value was 55.48%.

**Q.** And the “Percent Growth” value (NCI-H522)?
**A.** The value was −2.5%.

**Q.** And the “Percent Growth” value (EKVX)?
**A.** The value was 75.72%.

**Q.** What about the “Percent Growth” value (NCI-H226) of the same molecule?
**A.** Its value is 66.85%.

**Q.** What about the “Percent Growth” value (HOP-62) of the same molecule?
**A.** Its value is 29.35%.

**Q.** What about the “Percent Growth” value (NCI-H460) of the same molecule?
**A.** The value was 47.73%.

**Q.** And the “Percent Growth” value (NCI-H23)?
**A.** The value was 60.86%.

**Q.** What about the “Percent Growth” value (A549/ATCC) of the same molecule?
**A.** The value was 15.81%.

**Q.** And the “Percent Growth” value (HOP-92)?
**A.** The value was −24.05%.

**Q.** What about the “Percent Growth” value (HCT-116) of the same molecule?
**A.** Its value is 32.41%.

**Q.** And the “Percent Growth” value (HCT-15)?
**A.** The value was 62.31%.

**Q.** And the “Percent Growth” value (SW-620)?
**A.** The value was 18.57%.

**Q.** And the “Percent Growth” value (HCC-2998)?
**A.** Its value is 31.93%.

**Q.** What about the “Percent Growth” value (HT29) of the same molecule?
**A.** Its value is 56.34%.

**Q.** What about the “Percent Growth” value (KM12) of the same molecule?
**A.** The value was 7.63%.

**Q.** And the “Percent Growth” value (COLO 205)?
**A.** The value was 126%.

**Q.** What about the “Percent Growth” value (NCI/ADR-RES) of the same molecule?
**A.** The value was 54.76%.

**Q.** And the “Percent Growth” value (OVCAR-5)?
**A.** Its value is 59.37%.

**Q.** What about the “Percent Growth” value (OVCAR-3) of the same molecule?
**A.** Its value is −15.5%.

**Q.** And the “Percent Growth” value (SK-OV-3)?
**A.** Its value is 15.33%.

**Q.** And the “Percent Growth” value (IGROV1)?
**A.** Its value is 4.7%.

**Q.** What about the “Percent Growth” value (OVCAR-8) of the same molecule?
**A.** The value was 14.34%.

**Q.** What about the “Percent Growth” value (OVCAR-4) of the same molecule?
**A.** The value was −1.474%.

**Q.** And the “Percent Growth” value (HL-60(TB))?
**A.** The value was 82.57%.

**Q.** And the “Percent Growth” value (K-562)?
**A.** Its value is 96.34%.

**Q.** And the “Percent Growth” value (SR)?
**A.** The value was 51.7%.

**Q.** And the “Percent Growth” value (MOLT-4)?
**A.** Its value is 82.85%.
